Assays:
COX-2 in 184B5/HER cells = test: Amounts of COX-2 in 184B5/HER cells after treatment with MAP kinase inhibitors; format: cell-based, human
Source text: The cells used were 184B5 and 184B5/HER cell lines. They were obtained from a collaborator. The 184B5 cell line is an immortalized but nontumorogenic human breast epithelial cell line that was established from a reduction mammoplasty and is described in Stampfer, M. R., et al., Proc. Natl. Acad. Sci. USA 82, 2394-2398 (1985). The 184B5/HER cell line was derived by stably transfecting 184B5 cells with a mutationally activated human HER-2/neu oncogene; these cells form rapidly growing tumors when injected into athymic nude mice. The 184B5/HER cell line is described in Pierce, J. H., et al., Oncogene 6, 1189-1194(1991). Cells were maintained in MEM (from Life Technologies, Inc. of Grand Island, N.Y.)—KBM, i.e., kerotinocyte basal medium (from Clonetics Corp. of San Diego, Calif.), mixed in a ratio of 1:1. […]
Western blotting was carried out to determine whether the differences in PGE2 production were related to differences in amounts of COX enzymes. […] The protein concentration of the supernatant was measured as described in Lowry, O. H., et al., J. Biol. Chem. 193, 265-275 (1951). […]
The activity of p44/42 MAP kinase was measured using a nonradioactive method where the assay was performed with a p44/42 MAP kinase activity kit obtained from New England Biolabs (of Beverly, Mass.) using the manufacturer's instructions. […]

[1] = test system: HER-2/neu positive breast cancer that has metastasized; test: Treatment of a patient with metastasized HER-2/neu positive breast cancer; format: in vivo, human
Description: Breast cancer is determined to have metastasized to lung and liver three years after a mastectomy is performed on a patient with HER-2/neu positive breast cancer. The patient is treated with oral doses of Celebrex® of 400 mg twice a day or of Vioxx® of 50 mg per day.
After three months, the Celebrex® or Vioxx® was continued in combination regimen with Taxol® at a dose of 175 mg/m^2 administered intravenously every three weeks.
Breast cancer is determined to have metastasized to bone nine years after a mastectomy is performed on a patient with HER-2/neu positive breast cancer.
After 90 days, oral cyclophosphamide at a dose of 3 mg/kg/day and doxoribicin administered intravenously weekly at a dose of 20 mg/m^2, are added to the drug regimen.

[2] = test system: HER-2/neu positive colon cancer; test: Treatment of a patient after resection of HER-2/neu positive colon cancer; format: in vivo, human; settings: cancer localized to bowel wall, oral Celebrex 400 mg twice a day or Vioxx 50 mg per day for five years
Description: A patient undergoes resection of colon cancer which proves to be HER-2/neu positive. The colon cancer is found to be localized to the bowel wall; there is no evidence of extracolonic cancer. The patient is treated with Celebrex® at oral dose of 400 mg twice a day for five years or an oral dose of Vioxx® at 50 mg per day for five years.

[3] = test system: HER-2/neu positive breast cancer; test: Adjuvant therapy of a patient with HER-2/neu positive breast cancer; format: in vivo, human
Description: A patient with HER-2/neu positive breast cancer is treated with Celebrex® for adjuvant therapy at an oral dose of 400 mg twice a day for five years after a mastectomy. […] The same result is obtained when the Celebrex® is replaced with an oral dose of 50 mg per day of Vioxx® for five years.
The patient also received an oral dose of 400 mg Celebrex® twice daily for one year or an oral dose of 50 mg Vioxx® daily for one year.

[4] = metastasized to bone, after failure of prior chemotherapy, oral Celebrex 400 mg twice a day or Vioxx 50 mg per day plus HERCEPTIN
[5] = metastasized to bone, after 90 days oral cyclophosphamide 3 mg/kg/day and weekly IV doxorubicin 20 mg/m^2 added to the COX-2 inhibitor plus HERCEPTIN regimen
[6] = metastasized to lung and liver, after three months continued in combination with Taxol 175 mg/m^2 IV every three weeks
[7] = metastasized to lung and liver, oral Celebrex 400 mg twice a day or Vioxx 50 mg per day alone
[8] = adjuvant therapy alone, oral, five years after a mastectomy (Celebrex 400 mg twice a day; Vioxx 50 mg per day)
[9] = adjuvant therapy with HERCEPTIN (250 mg IV loading, 10 weekly 125 mg IV), oral Celebrex 400 mg twice daily or Vioxx 50 mg daily for one year

Row | Structure (SMILES) | amounts of COX-2 (COX-2 in 184B5/HER cells) | tumor burden [1, 4] | tumor burden [1, 5] | tumor burden [1, 6] | tumor burden [1, 7] | Recurrence of colon cancer [2] | Recurrence of breast cancer [3, 8] | Recurrence of breast cancer [3, 9]
1 | COc1cccc(-c2cc(=O)c3ccccc3o2)c1N [PD 98059, 2′-amino-3′-methoxyflavone] | decrease |  |  |  |  |  |  | 
2 | Oc1ccc(-c2nc(-c3ccc(F)cc3)c(-c3ccncc3)[nH]2)cc1 [SB 202190, 4-(4-fluorophenyl)-2-(4-hydroxyphenyl)-5-(4-pyridyl)-1H-imidazole] | down-regulated |  |  |  |  |  |  | 
3 | CS(=O)(=O)c1ccc(C2=C(c3ccccc3)C(=O)OC2)cc1 [Vioxx®, 3-(Phenyl)-4-(4-(methylsulfonyl)phenyl)-2-(5H)-furanone] |  | reduced tumor burden | still further reduced tumor burden | further reduced tumor burden | reduced tumor burden | does not occur | does not occur | does not occur
4 | Cc1ccc(-c2cc(C(F)(F)F)nn2-c2ccc(S(N)(=O)=O)cc2)cc1 [Celebrex®, 4-[5-(4-Methylphenyl)-3-(trifluoromethyl)-1H-pyrazol-1-yl]benzenesulfonamide] |  | reduced tumor burden | still further reduced tumor burden | further reduced tumor burden | reduced tumor burden | does not occur | does not occur | does not occur

— patent publication US6403630B1, “Treating cancers associated with overexpression of HER-2/neu” (Cornell Research Foundation, Inc., priority 1999, dated 2002)
